Experimental data as given in US11020398B2, “Amino-pyrrolopyrimidinone compounds and methods of use thereof” (ArQule, Inc., priority 2016, dated 2021).
pIC50: −log10 of the molar value.

Target: phosphorylated form of full length BTK (active BTK) (Homo sapiens (Human), UniProt Q06187)
Assay: Mobility shift assay (MSA, Caliper LabChip), active BTK assay
Format: biochemical
Conditions: Assay type B (MSA using active BTK)
Description: The active BTK assay consists of phosphorylated form of full length BTK. […] The enzyme inhibitor complexes is incubated, before the kinase activation reaction is initiated.
Mobility Shift Assay (MSA)
The active BTK assay consisted of phosphorylated form of full length BTK. […] The enzyme inhibitor complexes was incubated for 30 minutes at the room temperature and the kinase activation reaction was initiated by the addition of 1 μM Srctide peptide substrate and […].

Sequence of phosphorylated form of full length BTK (active BTK) (Q06187 whole entry): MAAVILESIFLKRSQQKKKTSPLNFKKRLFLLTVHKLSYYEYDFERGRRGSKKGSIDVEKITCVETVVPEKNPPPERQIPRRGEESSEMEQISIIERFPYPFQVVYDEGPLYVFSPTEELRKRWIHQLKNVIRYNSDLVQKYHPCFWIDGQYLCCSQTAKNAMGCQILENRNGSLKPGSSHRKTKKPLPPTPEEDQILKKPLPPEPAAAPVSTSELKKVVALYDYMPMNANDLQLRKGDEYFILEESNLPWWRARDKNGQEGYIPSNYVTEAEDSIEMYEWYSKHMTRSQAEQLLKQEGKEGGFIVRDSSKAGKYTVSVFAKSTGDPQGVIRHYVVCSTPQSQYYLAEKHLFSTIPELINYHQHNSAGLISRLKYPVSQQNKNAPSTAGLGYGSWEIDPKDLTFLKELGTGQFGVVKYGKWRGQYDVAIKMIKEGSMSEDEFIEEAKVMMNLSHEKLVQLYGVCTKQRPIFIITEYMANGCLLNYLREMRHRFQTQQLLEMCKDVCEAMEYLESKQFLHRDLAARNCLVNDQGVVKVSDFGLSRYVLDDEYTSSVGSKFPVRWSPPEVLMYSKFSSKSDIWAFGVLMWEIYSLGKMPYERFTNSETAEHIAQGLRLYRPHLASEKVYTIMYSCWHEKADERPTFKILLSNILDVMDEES

`CC(=O)N[C@H](C)[C@@H]1CC[C@@H](Nc2ncnc3[nH]cc(C(=O)c4ccc(Oc5ccccc5)cc4Cl)c23)CO1` [Compound I-195, N—((R)-1-((2S,5R)-5-((5-(2-chloro-4-phenoxybenzoyl)-7H-pyrrolo[2,3-d]pyrimidin-4-yl)amino)tetrahydro-2H-pyran-2-yl)ethyl)acetamide] showed a pIC50 of 8.66.

In the case of `CC(=O)N[C@H]1C[C@@H](Nc2ncnc3[nH]cc(C(=O)c4ccc(Oc5ccccc5)cc4)c23)C1` [Compound I-196, N-(cis-3-((5-(4-phenoxybenzoyl)-7H-pyrrolo[2,3-d]pyrimidin-4-yl)amino)cyclobutyl)acetamide], the pIC50 was 8.49.

Work on `Cc1cc(Oc2ccccc2)ccc1C(=O)c1c[nH]c2ncnc(N[C@@H]3CC[C@@H]([C@@H](C)O)OC3)c12` [Compound I-197, (4-(((3R,6S)-6-((R)-1-hydroxyethyl)tetrahydro-2H-pyran-3-yl)amino)-7H-pyrrolo[2,3-d]pyrimidin-5-yl)(2-methyl-4-phenoxyphenyl)methanone] yielded a pIC50 of 8.80.

For `CC(=O)N[C@@H](C)[C@@H]1CC[C@@H](Nc2ncnc3[nH]cc(C(=O)c4ccc(Oc5ccccc5)cc4)c23)CO1` [Compound I-198, N-((S)-1-((2S,5R)-5-((5-(4-phenoxybenzoyl)-7H-pyrrolo[2,3-d]pyrimidin-4-yl)amino)tetrahydro-2H-pyran-2-yl)ethyl)acetamide], the pIC50 was 8.59.

With `CC(=O)N[C@H]1C[C@H](Nc2ncnc3[nH]cc(C(=O)c4ccc(Oc5ccccc5)cc4)c23)C1` [Compound I-199, N-(trans-3-((5-(4-phenoxybenzoyl)-7H-pyrrolo[2,3-d]pyrimidin-4-yl)amino)cyclobutyl)acetamide] the pIC50 was 8.17.

For `C[C@]1(O)CC[C@@H](Nc2ncnc3[nH]cc(C(=O)c4ccc(Oc5ccccc5)cc4Cl)c23)CC1` [Compound I-200, (2-chloro-4-phenoxyphenyl)(4-((cis-4-hydroxy-4-methylcyclohexyl)amino)-7H-pyrrolo[2,3-d]pyrimidin-5-yl)methanone], the pIC50 was 8.85.

Molecule `C[C@]1(O)CC[C@H](Nc2ncnc3[nH]cc(C(=O)c4ccc(Oc5ccccc5)cc4Cl)c23)CC1` [Compound I-201, (2-chloro-4-phenoxyphenyl)(4-((trans-4-hydroxy-4-methylcyclohexyl)amino)-7H-pyrrolo[2,3-d]pyrimidin-5-yl)methanone] has a pIC50 of 8.82.

With `C[C@H](O)C(=O)N[C@H]1CC[C@@H](Nc2ncnc3[nH]cc(C(=O)c4ccc(Oc5ccccc5)cc4)c23)CC1` [Compound I-202, (S)-2-hydroxy-N-(cis-4-((5-(4-phenoxybenzoyl)-7H-pyrrolo[2,3-d]pyrimidin-4-yl)amino)cyclohexyl)propanamide] the pIC50 was 9.00.

In the case of `CC(C)(O)C(=O)N[C@H]1CC[C@@H](Nc2ncnc3[nH]cc(C(=O)c4ccc(Oc5ccccc5)cc4)c23)CC1` [Compound I-203, 2-hydroxy-2-methyl-N-(cis-4-((5-(4-phenoxybenzoyl)-7H-pyrrolo[2,3-d]pyrimidin-4-yl)amino)cyclohexyl)propanamide], the pIC50 was 8.85.

`CC(=O)N[C@@H](C)[C@@H]1CC[C@@H](Nc2ncnc3[nH]cc(C(=O)c4ccc(Oc5ccccc5)cc4C)c23)CO1` [Compound I-204, N-((S)-1-((2S,5R)-5-((5-(2-methyl-4-phenoxybenzoyl)-7H-pyrrolo[2,3-d]pyrimidin-4-yl)amino)tetrahydro-2H-pyran-2-yl)ethyl)acetamide] was tested, and the pIC50 was 8.96.

`CC(=O)NC[C@@H]1CC[C@@H](Nc2ncnc3[nH]cc(C(=O)c4ccc(Oc5ccccc5)cc4)c23)CO1` [Compound I-205, N-(((2S,5R)-5-((5-(4-phenoxybenzoyl)-7H-pyrrolo[2,3-d]pyrimidin-4-yl)amino)tetrahydro-2H-pyran-2-yl)methyl)acetamide] was tested, and the pIC50 was 8.80.

Molecule `C[C@@H](O)C(=O)N[C@H]1CC[C@@H](Nc2ncnc3[nH]cc(C(=O)c4ccc(Oc5ccccc5)cc4)c23)CC1` [Compound I-206, (R)-2-hydroxy-N-(cis-4-((5-(4-phenoxybenzoyl)-7H-pyrrolo[2,3-d]pyrimidin-4-yl)amino)cyclohexyl)propanamide] has a pIC50 of 8.74.
